Measurements reported in patent publication US11242327B2, “Analgesic compounds” (RECURIUM IP HOLDINGS, LLC, priority 2017, dated 2022).

Columns and labels:
[1] = molecular target: Opiate μ (Homo sapiens, UniProt P35372); experiment: NSAIDS and Opioid Receptor Test: Opiate μ; assay type: binding; settings: 10 μM
Method: Compounds were screened as DMSO solutions at 10 μM, 100 μM, or 200 μM and values represent percent inhibition of control-specific binding. […] As NSAID and opioid mechanisms of action are precluded, a person of ordinary skill in the art understands that undesirable side effects associated with inhibition of COX receptors in NSAIDs and activation of opiate receptors in opioids can be avoided by compounds described herein. Furthermore, opioids are known to lose their analgesic potency after to continued administration. (See Benyamin, et al. “Opioid Complications and Side Effects” Pain Physician 11 (2008): S105-S120). As the data indicates compounds described herein have a different mechanism action compared to opioids, a person of ordinary skill in the art would appreciate that compounds described herein would not be expected to lose their analgesic potency like opioids after continued admininistration.

[2] = test system: male Sprague-Dawley rats; experiment: Formalin Paw Test, rat, oral; assay type: in vivo; settings: 30 mg/kg; for Early Phase, seconds of paw licking: early/acute phase (0-10 minutes); for Late Phase, seconds of paw licking: late/tonic phase (10-35 minutes)
Procedure, shortened: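 Paw licking recorded every 5 min for 35 min after formalin injection, in groups of 8 non-fasted males: Sprague-Dawley rats (200–225 g) dosed orally or ICR mice (23±3 g) dosed intraperitoneally. Scores are licking-time bins: A <70 s, B 70–165 s, C >165 s.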

[3] = Bioavailability Test (rat pharmacokinetics); assay type: in vivo; settings: for F: PO 30 mg/kg vs IV 3 mg/kg; for AUC(0-inf) / clearance / half-life / Vd / Cmax / Tmax: male, Sprague-Dawley, in vivo; for Vd: read-out: Vdss
Method: Oral bioavailability of compounds of Formulae (Ie), (Ih), (Ik), and (Ir), or a pharmaceutically acceptable salt of any of the foregoing, were evaluated in fasted male Sprague-Dawley (SD) rats weighing 200-225g. Compounds were dosed at 3 mg/kg (IV) and 30 mg/kg (PO). Unless otherwise noted, compounds were dissolved in 0.9% saline for IV dosing and 100% sterile water for PO dosing. Pharmacokinetic parameters were determined using Phoenix WinNonlin (v7.0). […]

[4] = test system: male Sprague-Dawley rats; experiment: UVB Inflammatory Pain Test (thermal hyperalgesia); assay type: in vivo; settings: rat, oral; for paw withdrawal latency, 1 h: 1 h after dosing; for paw withdrawal latency, 2 h: 2 h after dosing; for paw withdrawal latency, 4 h: 4 h after dosing
Procedure, shortened: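 Left hind-paw plantar UVB (350 mJoules/cm^2) given on Day −3 to male Sprague-Dawley rats; on Day 0, test compounds dosed orally at 3, 10, 30 or 100 mg/kg, with water vehicle, celecoxib 30 mg/kg and acetaminophen 300 mg/kg. Radiant-heat paw withdrawal latency (mean of 3, 30 s cutoff) measured before dosing and about 1, 2 and 4 h after.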

[5] = test system: adult male C57BL/6 mice; experiment: Conditioned Place Preference (Abuse) Test; assay type: in vivo, mouse; settings: mouse, in vivo, ip
Description: A conditioned place preference (CPP) model was used to assess the reward properties of compounds of formulae (Ie), or a pharmaceutically acceptable salt of any of the foregoing, in adult male C57BL/6 mice. The CPP model apparatus consisted of a Plexiglas© test unit having three (A, B, C) compartments (9 cm×9 cm×16 cm) configured to allow access to all chambers. Compartments A and C had textually distinct flooring and wall marking. Mice were placed in the middle compartment with free access to the other compartments. On day 1 and 2, the “naive chamber preference” was assessed by placing the animal in the middle chamber twice a day (AM and PM) for 30 min on two consecutive days, with the chamber showing the greatest residence time being called the “preferred chamber”. On “drug pairing days” (days 5, 6, 7 and 8) mice were injected IP with vehicle (50 mM citric acid) in the AM in the preferred chamber and the drug/vehicle in the afternoon in the non-preferred chamber for four consecutive days. On the morning of day 9 (the day after the last drug pairing), the “drug chamber preference” was assessed by placing the mouse (absent any injection) in the middle chamber, with free access to all chambers for 30 minutes. This was repeated five days later (day fourteen), with no intervening drug treatment.
The time spent on days 9 and 14 (e.g. […] respectively after the last drug treatment) in the drug associated chamber was the test datum and is represented in FIG. 1. […] In contrast, there was no increase in the non-preferred chamber residence time when the least-preferred chamber was paired with saline, APAP or test compounds 2 or 28 on either days 9 or 14, or days 0 or 5.

Opiate μ, sequence (P35372 whole entry): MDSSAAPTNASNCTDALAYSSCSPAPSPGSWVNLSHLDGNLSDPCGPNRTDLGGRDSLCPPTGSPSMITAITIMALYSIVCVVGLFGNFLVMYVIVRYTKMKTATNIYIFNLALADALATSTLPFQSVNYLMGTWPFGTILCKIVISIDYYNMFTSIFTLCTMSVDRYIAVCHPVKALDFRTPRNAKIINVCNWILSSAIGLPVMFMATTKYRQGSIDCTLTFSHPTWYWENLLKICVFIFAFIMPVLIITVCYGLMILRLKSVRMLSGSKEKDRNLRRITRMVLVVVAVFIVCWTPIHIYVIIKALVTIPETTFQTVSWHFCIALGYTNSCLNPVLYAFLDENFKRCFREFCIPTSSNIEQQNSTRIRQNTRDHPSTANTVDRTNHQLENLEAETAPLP

Compound	inhibition at 10 µM [1]	Early Phase, seconds of paw licking [2]	Late Phase, seconds of paw licking [2]	F [3]	AUC(0-inf) ([3]; IV 3 mg/kg, 0.9% saline)	clearance ([3]; IV 3 mg/kg, 0.9% saline)	half-life ([3]; IV 3 mg/kg, 0.9% saline)	Vd ([3]; IV 3 mg/kg, 0.9% saline)	AUC(0-inf) ([3]; PO 30 mg/kg, sterile water)	Cmax ([3]; PO 30 mg/kg, sterile water)	Tmax ([3]; PO 30 mg/kg, sterile water)	half-life ([3]; PO 30 mg/kg, sterile water)	paw withdrawal latency, 1 h ([4]; 3 mg/kg)	paw withdrawal latency, 2 h ([4]; 3 mg/kg)	paw withdrawal latency, 4 h ([4]; 3 mg/kg)	paw withdrawal latency, 1 h ([4]; 10 mg/kg)	paw withdrawal latency, 2 h ([4]; 10 mg/kg)	paw withdrawal latency, 4 h ([4]; 10 mg/kg)	paw withdrawal latency, 1 h ([4]; 30 mg/kg)	paw withdrawal latency, 2 h ([4]; 30 mg/kg)	other results
Cl.NC12CC(c3nc(C(F)(F)F)cs3)(C1)C2 [Compound 1, 3-(4-(Trifluoromethyl)thiazol-2-yl)bicyclo[1.1.1]pentan-1-amine hydrochloride]	11%	A (<70 seconds of paw licking)	B (>70 and <165 seconds of paw licking)	115%	19.2 µM·h	11 mL/min/kg	3.1 h	1.4 L/kg	277 µM·h	49 µM	0.3 h	5.6 h	B (>6 and <8 seconds of paw withdrawal latency)	B (>6 and <8 seconds of paw withdrawal latency)	B (>6 and <8 seconds of paw withdrawal latency)	B (>6 and <8 seconds of paw withdrawal latency)	B (>6 and <8 seconds of paw withdrawal latency)	B (>6 and <8 seconds of paw withdrawal latency)	A (>8 seconds of paw withdrawal latency)	A (>8 seconds of paw withdrawal latency)	paw withdrawal latency, 4 h ([4]; 30 mg/kg): A (>8 seconds of paw withdrawal latency); paw withdrawal latency, 1 h ([4]; 100 mg/kg): A (>8 seconds of paw withdrawal latency); paw withdrawal latency, 2 h ([4]; 100 mg/kg): A (>8 seconds of paw withdrawal latency); paw withdrawal latency, 4 h ([4]; 100 mg/kg): A (>8 seconds of paw withdrawal latency)
Cc1sc(C23CC(N)(C2)C3)nc1C(F)(F)F.Cl [Compound 2, 3-(5-Methyl-4-(trifluoromethyl)thiazol-2-yl)bicyclo[1.1.1]pentan-1-amine hydrochloride]	9%	A (<70 seconds of paw licking)	A (<70 seconds of paw licking)	79%	4 µM·h	52 mL/min/kg	2.7 h	3.6 L/kg	29 µM·h	12 µM	1 h	2.4 h	A (>8 seconds of paw withdrawal latency)	A (>8 seconds of paw withdrawal latency)	A (>8 seconds of paw withdrawal latency)	A (>8 seconds of paw withdrawal latency)	B (>6 and <8 seconds of paw withdrawal latency)	A (>8 seconds of paw withdrawal latency)	A (>8 seconds of paw withdrawal latency)	A (>8 seconds of paw withdrawal latency)	least preferred (drug associated) chamber residence time [5]: no increase; paw withdrawal latency, 4 h ([4]; 30 mg/kg): B (>6 and <8 seconds of paw withdrawal latency); paw withdrawal latency, 1 h ([4]; 100 mg/kg): A (>8 seconds of paw withdrawal latency); paw withdrawal latency, 2 h ([4]; 100 mg/kg): A (>8 seconds of paw withdrawal latency); paw withdrawal latency, 4 h ([4]; 100 mg/kg): A (>8 seconds of paw withdrawal latency)
